By Ki is commonly meant the dissociation constant of the complex between target and ligand, obtained from inhibition or displacement. Low readings indicate higher affinity, high ones lower affinity. What is called ED50 is the midpoint of the dose-response relation.

The target in one experiment is Cannabinoid receptor (Homo sapiens, UniProt P34972+P21554). Put plainly: Binding affinity was determined in vitro against cannabinoid receptor by ability to displace [3H]CP-55940. The experiment is classed as protein assay.
For a further experiment, the system named is Mus musculus. The experiment is described as follows: Tested in vivo for cannabimimetic activity in mouse. The experiment is classed as functional.

A value given as a limit tells only on which side of the number the result lay.

The compound `CC(=O)c1c(C)n(CCN2CCOCC2)c2ccccc12` showed an inhibition constant Ki at Cannabinoid receptor greater than 10000 nM. The compound further registered a 50% effective dose (ED50) in the experiment with Mus musculus greater than 350 µmol/kg. In the case of `CCCCC[C@H](C)n1c(C)c(C(=O)c2cccc3ccccc23)c2ccccc21`, the Ki at Cannabinoid receptor is recorded as 72 nM.

As to `CCCCCCCn1c(C)c(C(=O)c2cccc3ccccc23)c2ccccc21`, the inhibition constant Ki at Cannabinoid receptor is greater than 10000 nM. Moreover, the ED50 in the experiment with Mus musculus is greater than 189 µmol/kg. The matching figures for `CC(C)=CC(=O)c1c(C)n(CCN2CCOCC2)c2ccccc12`: greater than 10000 nM and greater than 103 µmol/kg. For `Cc1c(C(=O)c2cccc3ccccc23)c2ccccc2n1CCc1ccccc1` the same measures were 1250 nM and greater than 257 µmol/kg. In the case of `CCCCCn1c(C)c(C(=O)c2cccc3ccccc23)c2ccccc21`, the inhibitory constant (Ki) on Cannabinoid receptor is reported as 9.5 nM. The ED50 in the experiment with Mus musculus was 2.62 µmol/kg. With `CCCCn1c(C)c(C(=O)c2cccc3ccccc23)c2ccccc21`, on Cannabinoid receptor, the inhibition constant Ki was determined as 22 nM. `Cc1c(C(=O)c2cccc3ccccc23)c2ccccc2n1CCC1CCCCC1` returned an inhibition constant Ki at Cannabinoid receptor of 46 nM. Further, in the experiment on Mus musculus, the 50% effect level (ED50) was put at a dose of 65.8 µmol/kg.

Compound `CCCCC[C@@H](C)n1c(C)c(C(=O)c2cccc3ccccc23)c2ccccc21` gave an inhibitory constant (Ki) at Cannabinoid receptor of 81 nM. In the experiment on Mus musculus, this compound displayed a median effective dose (ED50) of 21.5 µmol/kg. Compound `CCCCCCn1c(C)c(C(=O)c2cccc3ccccc23)c2ccccc21` yielded an inhibitory constant (Ki) on Cannabinoid receptor of 48 nM. This compound also had a 50% effective dose (ED50) in the experiment with Mus musculus of 14 µmol/kg. For `CCCCCC(C)n1c(C)c(C(=O)c2cccc3ccccc23)c2ccccc21` (racemic) the same measures were 33 nM and 35.6 µmol/kg. With `CCCCCCC(C)(C)c1ccc([C@@H]2C[C@H](O)CC[C@H]2CCCO)c(O)c1` [CP-55940], the ED50 in the experiment with Mus musculus was determined as 0.55 µmol/kg. In turn, `CCCCCc1cc(O)c2c(c1)OC(C)(C)[C@@H]1CCC(C)=C[C@@H]21` [DRONABINOL] displayed a median effective dose (ED50) in the experiment on Mus musculus of 4.7 µmol/kg.

Take `Cc1c(C(=O)c2cccc3ccccc23)c2cccc3c2n1[C@H](CN1CCOCC1)CO3` [WIN-552122]: in the experiment with Mus musculus, it took a dose of 6.53 µmol/kg to reach the 50% effect level (ED50).
